pIC50: −log10 of the molar value. Like-named read-outs stand apart in the source and are kept apart here.
Key:
[1] = test system: MM cell lines (NCI-H929, NCI-H929-1051, OPM2, OPM2-P10); test: Cell proliferation assay (CTG, 120 h), four cell lines together; assay type: cell-based; details: Homo sapiens, range over four cell lines and both compounds, read-out: antiproliferative IC50 values (range)
Procedure: Cell Culture Materials: Human multiple myeloma cell lines were purchased from the vendors and cultured at 37° C. with 5% CO2 in the media as indicated in Table 1. Lenalidomide and pomalidomide resistant cell lines were obtained by methods as generally described previously (Lopez-Girona et al Leukemia 2012; 26(11): 2335). All cell lines were kept in log phase, and cell density and viability were monitored by trypan blue exclusion using the Vi-cell XR cell viability analyzer (Beckman Coulter, Brea, CA).
Preparation of Solutions of Test Article: Compounds were plated into black 384-well plates (Corning Inc.) to a final DMSO volume of 0.1% assuming a maximal volume of 50 μL. […]
Cell Proliferation Assays: The effect of compounds on the proliferation/viability of the hematological cell lines (Table 1), was assessed after 120 h incubation using CTG (Promega), according to manufacturer's instructions. […] At 120 h, 25 μL per well of CTG was dispensed by a Multidrop Combi Reagent Dispenser and adenosine triphosphate (ATP) release by viable cells was measured as relative luminescence units after 30 minutes using the Envision platform.
Results. […] Proliferation was assessed using the CellTitre-Glo© assay. […] The IC50 for inhibition of cell growth by the compounds was determined for each cell line using ActivityBase software.

DF15 = test: Flow cytometry proliferation/apoptosis assay (120 h); assay type: cell-based, human; details: for pIC50: Homo sapiens, read-out: Antiproliferative Activity (Flow Cytometry) IC50; for induced apoptosis AUC (area under the dose response curve): scale 0-10000
Procedure: (§1) Methods. […] Twenty MM cell lines (Table 7 and 8) (including the plasma cell leukemia (PCL) cell lines L363, JJN-3, ARH-77, and SKMM-2) were treated in duplicate with escalating concentrations of Compound 2 or pomalidomide, ranging from 0.015 to 100 nM. Using 5 mM stocks, compounds were pre-spotted into the appropriate wells of 96-well plates using a Hewlett-Packard D300 Digital Dispenser. Cells were added to 96-well plates using a Multidrop Combi Reagent Dispenser. After 5 days of treatment, flow cytometric analysis was used to determine the number of cells that were alive, dead, or apoptotic. After 5 days of treatment, cells were incubated with annexin V to stain exposed phosphatidylserine, an apoptotic cell-surface marker, and the vital dye 7-AAD, which is excluded from cells with intact cell membranes, and analyzed by flow cytometry (Attune®, Thermo Fisher). Analysis was then performed to determine the number of live cells (annexin V and 7-AAD double negative staining cells) and the percentage of apoptotic cells (annexin V positive cells) for each condition, relative to the DMSO control treated, was calculated. All described values were normalized to DMSO-only treated cells. All proliferation and apoptosis induction curves were processed and graphed as percent of control using XLFit (IDBS, Alameda, CA) and GraphPad Prism 7.03 (GraphPad Software, La Jolla, CA). The live cell count for every concentration was normalized to the DMSO control (considered as 100%) in Microsoft Excel to generate the proliferation curves. […] Similarly, for apoptosis analysis, the percentage of drug-induced apoptosis was calculated for all doses by combining both “early” (annexin V positive and 7-AAD negative) and “late” apoptosis (annexin V and 7-AAD positive) values and subtracting background values (cell treated with vehicle control DMSO). The AUC values for apoptosis curves were calculated by performing area under curve analysis on GraphPad Prism 7.03. The area under the dose-response curve (AUC) was calculated since it integrates potency and efficacy of the drugs to represent apoptosis into a single parameter. The IC50 values for Compound 2 and pomalidomide in the flow cytometry assays are presented Table 9.
(§2) The apoptosis induction effect of Compound 2 was assessed using flow cytometry after 120 h of treatment and compared with pomalidomide treatment. […] Each data point represents 2 independent experiments with at least two samples in each experiment. (Table 10).

OPM2 = test: as above; assay type: cell-based, human; details: for pIC50: Homo sapiens, OPM-2, read-out: Antiproliferative Activity (Flow Cytometry) IC50; for induced apoptosis AUC (area under the dose response curve): scale 0-10000
Procedure: as §1, §2

EJM = test: as above; assay type: cell-based, human; details: for pIC50: Homo sapiens, read-out: Antiproliferative Activity (Flow Cytometry) IC50; for induced apoptosis AUC (area under the dose response curve): scale 0-10000
Procedure: (§3) Methods. […] Using 5 mM stocks, compounds were pre-spotted into the appropriate wells of 96-well plates using a Hewlett-Packard D300 Digital Dispenser. Cells were added to 96-well plates using a Multidrop Combi Reagent Dispenser. After 5 days of treatment, flow cytometric analysis was used to determine the number of cells that were alive, dead, or apoptotic. After 5 days of treatment, cells were incubated with annexin V to stain exposed phosphatidylserine, an apoptotic cell-surface marker, and the vital dye 7-AAD, which is excluded from cells with intact cell membranes, and analyzed by flow cytometry (Attune®, Thermo Fisher). Analysis was then performed to determine the number of live cells (annexin V and 7-AAD double negative staining cells) and the percentage of apoptotic cells (annexin V positive cells) for each condition, relative to the DMSO control treated, was calculated. All described values were normalized to DMSO-only treated cells. All proliferation and apoptosis induction curves were processed and graphed as percent of control using XLFit (IDBS, Alameda, CA) and GraphPad Prism 7.03 (GraphPad Software, La Jolla, CA). The live cell count for every concentration was normalized to the DMSO control (considered as 100%) in Microsoft Excel to generate the proliferation curves. […] Similarly, for apoptosis analysis, the percentage of drug-induced apoptosis was calculated for all doses by combining both “early” (annexin V positive and 7-AAD negative) and “late” apoptosis (annexin V and 7-AAD positive) values and subtracting background values (cell treated with vehicle control DMSO). The AUC values for apoptosis curves were calculated by performing area under curve analysis on GraphPad Prism 7.03. The area under the dose-response curve (AUC) was calculated since it integrates potency and efficacy of the drugs to represent apoptosis into a single parameter. The IC50 values for Compound 2 and pomalidomide in the flow cytometry assays are presented Table 9.
as §2

KMS34 = test: as above; assay type: cell-based, human; details: for pIC50: Homo sapiens, KMS-34, KMS34, read-out: Antiproliferative Activity (Flow Cytometry) IC50; for induced apoptosis AUC (area under the dose response curve): KMS-34, scale 0-10000
Procedure: as §3, §2

RPMI-8226 = test: PBMC and MM cell treatment assay (single culture vs co-culture); assay type: cell-based; details: Homo sapiens, RPMI-8226, RPMI-8226, read-out: Immune-mediated Cell Killing IC50

SMILES	pIC50 [1]	pIC50 (DF15)	induced apoptosis AUC (area under the dose response curve) (DF15)	pIC50 (OPM2)	induced apoptosis AUC (area under the dose response curve) (OPM2)	pIC50 (EJM)	induced apoptosis AUC (area under the dose response curve) (EJM)	pIC50 (KMS34)	induced apoptosis AUC (area under the dose response curve) (KMS34)	pIC50 (RPMI-8226; Co-culture with PBMCs)	pIC50 (RPMI-8226; Single culture)
N#Cc1ccc(N2CCN(Cc3ccc(COc4cccc5c4CN(C4CCC(=O)NC4=O)C5=O)cc3)CC2)c(F)c1 (racemic) [Compound 1, 4-(4-(4-(((2-(2,6-dioxopiperidin-3-yl)-1-oxoisoindolin-4-yl)oxy)methyl)benzyl)piperazin-1-yl)-3-fluorobenzonitrile]	7.72 to 10.15	–	–	–	–	–	–	–	–	–	–
N#Cc1ccc(N2CCN(Cc3ccc(COc4cccc5c4CN([C@H]4CCC(=O)NC4=O)C5=O)cc3)CC2)c(F)c1 [Compound 2, (S)-4-(4-(4-(((2-(2,6-dioxopiperidin-3-yl)-1-oxoisoindolin-4-yl)oxy)methyl)benzyl)piperazin-1-yl)-3-fluorobenzonitrile]	7.72 to 10.15	10.30	6002	10.30	5620	9.37	2591	9.35	1614	10.08	7.87
Nc1cccc2c1C(=O)N(C1CCC(=O)NC1=O)C2=O (stereo not shown) [Pomalidomide, pomalidomide]	–	7.39	3707	7.16	3298	5.55	900	< 5.00	429.7	7.17	< 5.00
